The test system of series [1] is tumour LS 174 T. The series is described as follows: laser-induced fluorescence imaging of tumour-bearing mouse. In kind it is in vivo, mouse (Swiss Nude). An excerpt: 2-[7-[1,3-dihydro-3,3-dimethyl-5-(methoxycarbonyl)-1-(4-sulfobutyl)-2H-indol-2-yliden]-1,3,5-heptatrienyl]-3,3 -dimethyl-5-(methoxycarbonyl)-1-(4-sulfobutyl)-3H-indolium, sodium salt at a dose of 3.8 μmol/kg body weight was applied intravenously to an anaesthetized, tumour-bearing mouse (Swiss Nude; tumour LS 174 T at the right hindleg).
The laser-induced fluorescent images were taken prior to, and at various points in time after, applying the substance with a fluorescence imager (at Physikalisch-Technische Bundesanstalt, Berlin Charlottenburg). Radiation was excited using monochromatic laser light at 740 nm by decoupling the radiation via a fibre optical waveguide system. Exciting radiation below 740 nm was removed using a cutoff filter. The laser-induced fluorescence light above 740 nm was recorded using a CCD camera (Charge Coupled Device), and data was stored in the form of black-and-white images.

The conditions of series [2]: in vivo; cited from earlier work.
Series [3] deals with albumin (Homo sapiens, UniProt P02768). Conditions: cited from earlier work.
Chain of albumin (P02768 25-609, species assumed): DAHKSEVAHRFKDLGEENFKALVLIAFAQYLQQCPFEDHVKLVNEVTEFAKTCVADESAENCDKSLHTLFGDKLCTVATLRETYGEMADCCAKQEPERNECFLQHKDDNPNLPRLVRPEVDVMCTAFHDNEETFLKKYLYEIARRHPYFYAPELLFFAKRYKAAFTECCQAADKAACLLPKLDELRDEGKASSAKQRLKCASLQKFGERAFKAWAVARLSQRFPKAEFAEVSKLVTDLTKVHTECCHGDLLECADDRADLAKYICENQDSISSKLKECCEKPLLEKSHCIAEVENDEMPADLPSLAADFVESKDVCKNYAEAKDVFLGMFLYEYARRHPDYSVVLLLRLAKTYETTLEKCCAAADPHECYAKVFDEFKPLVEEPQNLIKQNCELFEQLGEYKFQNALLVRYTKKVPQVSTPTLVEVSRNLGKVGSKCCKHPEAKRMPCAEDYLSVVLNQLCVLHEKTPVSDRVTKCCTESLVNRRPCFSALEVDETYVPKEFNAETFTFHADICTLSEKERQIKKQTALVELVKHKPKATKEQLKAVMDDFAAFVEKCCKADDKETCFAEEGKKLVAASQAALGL
The conditions of series [4]: cited from earlier work.

The source of these data is US7655217B2, “Near infrared imaging agent” (Institut fur Diagnosikforschung GmbH, priority 1997, dated 2010).

The structures appear in SMILES notation.

With `COC(=O)c1ccc2c(c1)C(C)(C)C(=CC=CC=CC=CC1=[N+](CCCCS(=O)(=O)O)c3ccc(C(=O)OC)cc3C1(C)C)N2CCCCS(=O)(=O)O.[Na+]` [Example 8, 2-[7-[1,3-dihydro-3,3-dimethyl-5-(methoxycarbonyl)-1-(4-sulfobutyl)-2H-indol-2-yliden]-1,3,5-heptatrienyl]-3,3-dimethyl-5-(methoxycarbonyl)-1-(4-sulfobutyl)-3H-indolium, sodium salt], the fluorescent intensity distribution entry in series [1] (30 seconds after i.v. 3.8 μmol/kg body weight, excitation 740 nm) is “values being increased in the hepatic and pulmonary regions and in the tumour”. Besides, the “fluorescent intensity in the tumour as compared with the rest of the body” value in series [1] (18 hours after i.v. 3.8 μmol/kg body weight) is listed as “clearly increased fluorescent intensity”. Further, the “distribution of the substance in the animal” value in series [1] (up to 1 h after i.v. 3.8 μmol/kg body weight) was “spreads more and more throughout the animal”.
With `CC1(C)C(/C=C/C=C/C=C/C=C2\N(CCCCS(=O)(=O)O)c3ccc4ccccc4c3C2(C)C)=[N+](CCCCS(=O)(=O)[O-])c2ccc3ccccc3c21` [Indocyanine green], the median lethal dose (LD50) in series [2] is reported as 0.84 mmol/kg. In series [3], the binding to albumin entry is reported as “up to 100%”. Besides, in series [4] (dissolved), the stability when dissolved entry is listed as “unstable when dissolved”. Moreover, the “applicability in saline media” value in series [4] (saline media) was “precipitation will occur”.
